{"source": "ChEMBL document CHEMBL5465560", "about": "“Selectivity Literature for EUbOPEN Chemogenomic Library” (2024)", "key": {"[1]": {"molecular_target": "T1, MAP/microtubule affinity-regulating kinase 4 (Homo sapiens) (UniProt Q96L34)", "T1 sequence (whole entry)": "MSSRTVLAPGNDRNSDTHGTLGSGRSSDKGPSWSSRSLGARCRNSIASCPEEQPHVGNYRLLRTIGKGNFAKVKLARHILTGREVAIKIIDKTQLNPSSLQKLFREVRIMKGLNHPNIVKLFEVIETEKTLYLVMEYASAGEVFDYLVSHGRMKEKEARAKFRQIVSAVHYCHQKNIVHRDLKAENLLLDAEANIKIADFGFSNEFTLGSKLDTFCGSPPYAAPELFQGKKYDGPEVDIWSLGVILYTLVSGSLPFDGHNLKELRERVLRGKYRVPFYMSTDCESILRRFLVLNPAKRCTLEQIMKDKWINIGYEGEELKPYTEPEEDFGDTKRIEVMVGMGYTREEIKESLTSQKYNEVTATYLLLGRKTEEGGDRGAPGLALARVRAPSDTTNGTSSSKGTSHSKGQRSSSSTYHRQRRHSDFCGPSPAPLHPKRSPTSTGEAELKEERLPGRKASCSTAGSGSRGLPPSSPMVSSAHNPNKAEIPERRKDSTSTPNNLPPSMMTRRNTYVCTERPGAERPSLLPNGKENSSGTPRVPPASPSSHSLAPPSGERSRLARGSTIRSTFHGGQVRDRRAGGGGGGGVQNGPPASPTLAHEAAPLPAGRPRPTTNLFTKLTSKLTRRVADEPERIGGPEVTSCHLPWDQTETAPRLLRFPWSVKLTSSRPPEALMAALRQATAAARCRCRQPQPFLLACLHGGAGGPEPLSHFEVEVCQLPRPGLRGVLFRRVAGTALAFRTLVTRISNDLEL", "conditions": "at 10 µM"}, "[2]": {"molecular_target": "Serine/threonine-protein kinase MRCK beta (Homo sapiens) (UniProt Q9Y5S2)", "sequence (Q9Y5S2 whole entry)": "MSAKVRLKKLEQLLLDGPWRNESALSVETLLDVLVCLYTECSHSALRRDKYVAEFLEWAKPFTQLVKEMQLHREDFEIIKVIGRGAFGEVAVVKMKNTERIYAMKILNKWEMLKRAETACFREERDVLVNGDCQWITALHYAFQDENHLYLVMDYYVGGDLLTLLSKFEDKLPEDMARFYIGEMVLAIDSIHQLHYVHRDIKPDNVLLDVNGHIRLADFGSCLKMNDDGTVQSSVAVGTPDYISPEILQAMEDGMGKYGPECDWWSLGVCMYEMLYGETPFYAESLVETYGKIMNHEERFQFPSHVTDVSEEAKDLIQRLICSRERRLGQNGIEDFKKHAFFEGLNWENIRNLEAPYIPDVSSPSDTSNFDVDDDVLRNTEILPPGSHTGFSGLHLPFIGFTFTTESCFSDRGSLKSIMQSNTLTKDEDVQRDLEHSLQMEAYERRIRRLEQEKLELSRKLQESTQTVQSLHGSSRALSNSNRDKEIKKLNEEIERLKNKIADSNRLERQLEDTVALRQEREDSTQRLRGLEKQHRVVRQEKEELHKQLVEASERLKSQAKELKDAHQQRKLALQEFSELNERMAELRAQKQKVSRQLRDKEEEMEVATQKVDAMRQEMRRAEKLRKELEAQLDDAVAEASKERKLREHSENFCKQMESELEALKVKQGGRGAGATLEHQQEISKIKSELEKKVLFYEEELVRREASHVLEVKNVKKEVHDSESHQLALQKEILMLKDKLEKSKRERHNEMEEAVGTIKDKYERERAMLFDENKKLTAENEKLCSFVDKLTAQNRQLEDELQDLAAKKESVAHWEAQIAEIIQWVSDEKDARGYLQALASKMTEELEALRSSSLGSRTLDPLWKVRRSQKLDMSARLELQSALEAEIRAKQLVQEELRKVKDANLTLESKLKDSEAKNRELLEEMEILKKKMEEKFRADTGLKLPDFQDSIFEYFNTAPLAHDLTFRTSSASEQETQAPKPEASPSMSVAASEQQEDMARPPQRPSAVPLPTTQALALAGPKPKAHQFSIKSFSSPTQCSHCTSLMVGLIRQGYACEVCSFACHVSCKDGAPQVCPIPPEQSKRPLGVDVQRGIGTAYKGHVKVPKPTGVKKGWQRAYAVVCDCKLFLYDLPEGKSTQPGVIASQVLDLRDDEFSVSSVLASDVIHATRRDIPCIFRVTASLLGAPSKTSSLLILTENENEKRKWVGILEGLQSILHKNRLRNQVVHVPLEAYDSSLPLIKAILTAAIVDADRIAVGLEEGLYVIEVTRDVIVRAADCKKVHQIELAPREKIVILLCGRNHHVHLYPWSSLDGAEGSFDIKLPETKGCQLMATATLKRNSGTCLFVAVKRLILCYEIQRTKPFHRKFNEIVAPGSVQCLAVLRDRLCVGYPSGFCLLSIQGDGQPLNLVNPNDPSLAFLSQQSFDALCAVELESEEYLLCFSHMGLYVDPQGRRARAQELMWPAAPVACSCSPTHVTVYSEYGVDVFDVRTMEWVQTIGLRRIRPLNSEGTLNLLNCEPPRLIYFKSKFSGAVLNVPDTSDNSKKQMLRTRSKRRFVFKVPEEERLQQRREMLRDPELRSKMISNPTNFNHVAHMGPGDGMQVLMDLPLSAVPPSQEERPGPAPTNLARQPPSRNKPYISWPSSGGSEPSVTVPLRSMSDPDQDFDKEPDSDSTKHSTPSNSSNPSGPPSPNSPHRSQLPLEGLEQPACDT", "experiment": "Selectivity interaction (KinomeScan (DiscoverX)) EUB0001049a CDC42BPB", "conditions": "at 1 µM"}, "[3]": {"molecular_target": "Cyclin-dependent kinase 2 (Homo sapiens, UniProt P24941)", "experiment": "Selectivity interaction (ActivX KiNativ screen (kinase selectivity in THP-1 cell lysates)) EUB0000639a CDK2", "type": "subcellular", "conditions": "lysate, at 0.2 µM"}, "[4]": {"molecular_target": "T2, Myosin light chain kinase family member 4 (Homo sapiens) (UniProt Q86YV6)", "T2 sequence (whole entry)": "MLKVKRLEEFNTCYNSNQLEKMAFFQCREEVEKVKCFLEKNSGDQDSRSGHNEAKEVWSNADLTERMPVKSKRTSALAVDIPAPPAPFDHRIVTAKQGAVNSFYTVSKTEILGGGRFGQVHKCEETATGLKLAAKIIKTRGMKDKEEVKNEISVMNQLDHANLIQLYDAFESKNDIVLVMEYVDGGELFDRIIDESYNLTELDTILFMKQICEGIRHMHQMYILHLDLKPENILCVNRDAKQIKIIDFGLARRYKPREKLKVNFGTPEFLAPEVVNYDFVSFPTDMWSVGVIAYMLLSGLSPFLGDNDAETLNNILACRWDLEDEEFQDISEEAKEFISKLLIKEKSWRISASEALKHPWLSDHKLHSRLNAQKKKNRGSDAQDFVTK", "experiment": "Selectivity interaction (KinomeScan (DiscoverX)) EUB0001619a MYLK4", "conditions": "at 1 µM"}, "[5]": {"molecular_target": "T3, Bone morphogenetic protein receptor type-2 (Homo sapiens) (UniProt Q13873)", "T3 sequence (whole entry)": "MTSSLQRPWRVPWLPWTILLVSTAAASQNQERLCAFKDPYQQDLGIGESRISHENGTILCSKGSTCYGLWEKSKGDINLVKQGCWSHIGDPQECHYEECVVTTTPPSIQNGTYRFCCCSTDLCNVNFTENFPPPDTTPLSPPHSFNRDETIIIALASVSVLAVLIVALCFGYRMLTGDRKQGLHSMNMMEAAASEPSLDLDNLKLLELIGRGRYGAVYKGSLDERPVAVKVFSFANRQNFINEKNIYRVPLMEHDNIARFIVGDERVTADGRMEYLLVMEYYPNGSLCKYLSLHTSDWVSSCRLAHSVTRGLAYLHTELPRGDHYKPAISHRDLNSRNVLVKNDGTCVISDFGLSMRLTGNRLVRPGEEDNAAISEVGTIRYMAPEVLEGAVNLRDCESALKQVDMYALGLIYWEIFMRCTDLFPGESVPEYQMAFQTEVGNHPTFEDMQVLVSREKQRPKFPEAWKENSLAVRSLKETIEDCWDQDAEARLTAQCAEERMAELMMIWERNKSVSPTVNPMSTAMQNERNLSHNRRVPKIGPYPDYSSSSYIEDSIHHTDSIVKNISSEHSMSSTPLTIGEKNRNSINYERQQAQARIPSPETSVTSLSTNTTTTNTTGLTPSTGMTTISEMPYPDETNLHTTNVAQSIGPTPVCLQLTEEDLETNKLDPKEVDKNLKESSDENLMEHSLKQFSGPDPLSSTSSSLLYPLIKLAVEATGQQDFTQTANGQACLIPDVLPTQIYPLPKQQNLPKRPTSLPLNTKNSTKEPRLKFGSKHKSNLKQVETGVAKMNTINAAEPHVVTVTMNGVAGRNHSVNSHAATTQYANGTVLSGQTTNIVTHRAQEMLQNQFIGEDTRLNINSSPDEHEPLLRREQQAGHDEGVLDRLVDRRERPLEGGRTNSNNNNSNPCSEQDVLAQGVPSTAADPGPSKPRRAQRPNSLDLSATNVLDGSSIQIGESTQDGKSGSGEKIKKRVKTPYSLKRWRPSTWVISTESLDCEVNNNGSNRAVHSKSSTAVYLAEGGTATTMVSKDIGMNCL", "experiment": "Selectivity interaction (KinomeScan (DiscoverX)) EUB0000618a BMPR2", "conditions": "at 10 µM"}, "[6]": {"molecular_target": "T4, Dual specificity mitogen-activated protein kinase kinase 3 (Homo sapiens) (UniProt P46734)", "T4 sequence (whole entry)": "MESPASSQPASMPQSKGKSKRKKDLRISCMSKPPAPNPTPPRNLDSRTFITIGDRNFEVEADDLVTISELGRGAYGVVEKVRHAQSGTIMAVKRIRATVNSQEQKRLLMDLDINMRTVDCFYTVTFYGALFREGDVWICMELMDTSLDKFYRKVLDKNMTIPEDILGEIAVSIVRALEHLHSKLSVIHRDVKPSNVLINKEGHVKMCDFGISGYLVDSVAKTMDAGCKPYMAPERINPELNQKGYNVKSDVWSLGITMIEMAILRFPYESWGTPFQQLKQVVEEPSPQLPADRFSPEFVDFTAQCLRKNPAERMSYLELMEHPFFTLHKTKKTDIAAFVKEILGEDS", "experiment": "Selectivity interaction (KinomeScan (DiscoverX)) EUB0000618a MAP2K3", "conditions": "at 10 µM"}, "[7]": {"molecular_target": "Serine/threonine-protein kinase N1 (Homo sapiens, UniProt Q16512)", "sequence (Q16512 2-942 limits assumed)": "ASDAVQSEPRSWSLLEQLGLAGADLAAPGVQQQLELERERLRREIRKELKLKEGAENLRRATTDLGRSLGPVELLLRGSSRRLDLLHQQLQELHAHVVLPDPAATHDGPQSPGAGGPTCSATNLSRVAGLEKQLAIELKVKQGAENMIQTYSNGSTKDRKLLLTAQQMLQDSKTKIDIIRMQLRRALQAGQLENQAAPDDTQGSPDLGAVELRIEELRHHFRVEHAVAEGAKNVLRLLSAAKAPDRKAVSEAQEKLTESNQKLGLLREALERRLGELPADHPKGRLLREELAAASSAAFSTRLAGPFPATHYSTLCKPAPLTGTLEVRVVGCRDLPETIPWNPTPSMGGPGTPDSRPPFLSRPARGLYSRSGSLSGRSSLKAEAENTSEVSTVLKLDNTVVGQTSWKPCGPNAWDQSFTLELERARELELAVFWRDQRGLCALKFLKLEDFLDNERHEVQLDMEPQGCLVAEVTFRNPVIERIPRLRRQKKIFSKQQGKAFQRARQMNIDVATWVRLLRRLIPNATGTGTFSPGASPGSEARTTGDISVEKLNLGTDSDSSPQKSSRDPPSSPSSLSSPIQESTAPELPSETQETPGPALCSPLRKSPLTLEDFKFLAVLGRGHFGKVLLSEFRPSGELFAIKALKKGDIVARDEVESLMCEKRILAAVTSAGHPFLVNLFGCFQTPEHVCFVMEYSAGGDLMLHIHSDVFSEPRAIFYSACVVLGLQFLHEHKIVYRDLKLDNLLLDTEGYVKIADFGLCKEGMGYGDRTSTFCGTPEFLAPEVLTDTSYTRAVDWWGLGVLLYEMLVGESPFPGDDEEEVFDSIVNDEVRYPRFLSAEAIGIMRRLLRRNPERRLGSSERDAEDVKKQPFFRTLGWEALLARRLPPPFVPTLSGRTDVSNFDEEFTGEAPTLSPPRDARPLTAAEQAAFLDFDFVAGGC", "experiment": "Selectivity interaction (KinomeScan (DiscoverX)) EUB0000607a PKN1", "conditions": "at 10 µM"}, "[8]": {"molecular_target": "Serine/threonine-protein kinase/endoribonuclease IRE1 (Homo sapiens) (UniProt O75460)", "sequence (O75460 19-977 limits assumed)": "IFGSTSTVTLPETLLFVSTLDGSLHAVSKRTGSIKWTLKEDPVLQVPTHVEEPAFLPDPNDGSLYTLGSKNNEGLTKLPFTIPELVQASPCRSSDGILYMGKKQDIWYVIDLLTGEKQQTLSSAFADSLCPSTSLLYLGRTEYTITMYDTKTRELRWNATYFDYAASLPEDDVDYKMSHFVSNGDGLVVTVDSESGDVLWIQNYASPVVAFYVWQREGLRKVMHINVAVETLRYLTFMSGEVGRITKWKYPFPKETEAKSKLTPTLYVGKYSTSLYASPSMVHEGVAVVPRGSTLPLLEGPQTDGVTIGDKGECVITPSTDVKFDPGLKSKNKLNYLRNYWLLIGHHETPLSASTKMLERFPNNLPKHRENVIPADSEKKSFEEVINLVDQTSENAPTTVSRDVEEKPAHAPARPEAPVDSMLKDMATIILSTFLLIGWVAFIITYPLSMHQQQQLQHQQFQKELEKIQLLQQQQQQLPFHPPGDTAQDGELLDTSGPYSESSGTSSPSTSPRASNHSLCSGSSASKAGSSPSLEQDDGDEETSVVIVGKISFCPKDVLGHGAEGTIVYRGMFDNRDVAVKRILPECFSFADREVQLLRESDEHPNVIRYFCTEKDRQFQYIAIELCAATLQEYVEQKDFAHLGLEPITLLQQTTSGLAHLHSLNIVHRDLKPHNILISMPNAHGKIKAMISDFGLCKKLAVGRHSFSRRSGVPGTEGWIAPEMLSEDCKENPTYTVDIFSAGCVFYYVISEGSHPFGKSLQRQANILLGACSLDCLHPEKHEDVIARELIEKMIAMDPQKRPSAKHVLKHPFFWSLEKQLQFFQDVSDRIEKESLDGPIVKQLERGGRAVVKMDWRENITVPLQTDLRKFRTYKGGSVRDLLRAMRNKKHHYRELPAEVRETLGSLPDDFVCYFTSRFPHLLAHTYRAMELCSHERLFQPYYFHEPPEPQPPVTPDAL", "experiment": "Selectivity interaction (KinomeScan (DiscoverX)) EUB0000666a ERN1", "conditions": "at 10 µM"}}, "data": [{"smiles": "Cc1cc([C@@H](C)Nc2ccccc2C(=O)O)c2nc(N3CCOCC3)cc(=O)n2c1", "note": "[AZD-6482]", "values": [{"measurement": "% of control", "setting": "[1]", "value": 100, "unit": "%"}]}, {"smiles": "COc1cc(Nc2nc(C)cc(-c3cnn4nc(OC)ccc34)n2)cc(C(F)(F)F)c1", "values": [{"measurement": "% of control", "setting": "[2]", "value": 85, "unit": "%"}]}, {"smiles": "CC[C@@H]1[C@H](F)C(=O)N[C@@H]1COc1nccc2cc(C(N)=O)c(OC)cc12", "note": "[ZIMLOVISERTIB]", "values": [{"measurement": "% of inhibition", "setting": "[3]", "value": -1, "unit": "%"}]}, {"smiles": "N#Cc1cccc(-c2c[nH]c3ncnc(N4CCOCC4)c23)c1", "values": [{"measurement": "% of control", "setting": "[4]", "value": 100, "unit": "%"}]}, {"smiles": "O[C@H]1CC[C@H](Nc2ncc3nc(Nc4c(F)cc(F)cc4F)n([C@H]4CCOC4)c3n2)CC1", "values": [{"measurement": "% of control", "setting": "[5]", "value": 78, "unit": "%"}, {"measurement": "% of control", "setting": "[6]", "value": 43, "unit": "%"}]}, {"smiles": "CNC(=O)Nc1ccc(-c2nc(N3CC4CCC(C3)O4)c3cnn(C4CCC5(CC4)OCCO5)c3n2)cc1", "values": [{"measurement": "% of control", "setting": "[7]", "value": 100, "unit": "%"}]}, {"smiles": "O=C(NOC[C@H](O)CO)c1ccc(F)c(F)c1Nc1ccc(I)cc1F", "values": [{"measurement": "% of control", "setting": "[8]", "value": 97, "unit": "%"}]}]}
